From US8586611B2 (priority 2005, dated 2013)

Key:
Format in all cases: in vivo
[1] = system: Erysiphe graminis f. sp. tritici; test: Test E: wheat powdery mildew, spray the day before inoculation (disease rating, 100 = 100% disease control); details: spray the day before inoculation, compounds without asterisk (not 40 or 10 ppm)
Method in brief: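 Wheat seedlings sprayed to run-off with compound suspended in acetone/water 50/50 with 250 ppm Trem 014 (200 ppm equivalent to 500 g/ha); inoculated next day with Erysiphe graminis f. sp. tritici spore dust. Kept 7 days at 20° C, then rated 0–100% disease control versus controls.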

Phytophthora infestans [2] = test: whole plant or invertebrate; details: tomato late blight; spray the day before inoculation; compounds without asterisk (not 40 or 10 ppm)
[3] = system: Pseudoperonospora cubensis; test: Test F: cucumber downy mildew, DMSO/acetone/water test suspension, spray the day before inoculation (disease rating, 100 = 100% disease control); details: DMSO/acetone/water suspension, spray the day before inoculation, compounds without asterisk
Excerpt: The test compounds were first dissolved in dimethyl sulfoxide (DMSO) in an amount equal to 4% of the final volume and then suspended at the desired concentration (in ppm) in acetone and purified water (30/70 mix by volume). The resulting test suspensions were then used in test F. Spraying a 250 ppm test suspension on the test plants was the equivalent of a rate of 250 g/ha.
The test suspension was sprayed on cucumber seedlings. The following day the seedlings were inoculated with a spore suspension of Pseudoperonospora cubensis (the causal agent of cucumber downy mildew) and incubated in a saturated atmosphere at 20° C. for 24 h, and then moved to a growth chamber at 20° C. for 6 days, after which disease ratings were made.
Results for Tests A-F are given in Table A. In the table, a rating of 100 indicates 100% disease control and a rating of 0 indicates no disease control (relative to the controls). A dash (-) indicates no test results.

Phytophthora infestans [4] = test: whole plant or invertebrate; details: tomato late blight; spray 17 h after inoculation; compounds without asterisk (not 40 or 10 ppm)
Plasmopara viticola = test: Test B: grape downy mildew, spray 24 h after inoculation (disease rating, 100 = 100% disease control); details: spray 24 h after inoculation, compounds without asterisk (not 40 or 10 ppm)
Method in brief: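 Grape seedlings were inoculated with Plasmopara viticola and held 24 h saturated at 20 °C, then sprayed to run-off with compound suspension (acetone/water with 250 ppm Trem 014; 200 ppm ≈ 500 g/ha). After 5 days at 20 °C and 24 h saturation, disease was rated from 0 to 100% control versus untreated.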

SMILES	Test E disease rating (100 = 100% disease control, 0 = no disease control) [1]	Test C disease rating (100 = 100% disease control, 0 = no disease control) (Phytophthora infestans [2])	Test F disease rating (100 = 100% disease control, 0 = no disease control) [3]	Test D disease rating (100 = 100% disease control, 0 = no disease control) (Phytophthora infestans [4])	Test B disease rating (100 = 100% disease control, 0 = no disease control) (Plasmopara viticola)
COc1ccc([C@@H](C)N(C)C(=O)c2csc(C3CCN(C(=O)Cc4cc(C)ccc4C)CC3)n2)cc1 [compound 59]	21%	98%	93%	63%	84%
Cc1ccc(C)c(CC(=O)N2CCC(c3nc(C(=O)N(C)[C@H](C)c4ccc(Cl)cc4)cs3)CC2)c1 [compound 60]	67%	93%	47%	42%	95%
Cc1ccc([C@@H](C)N(C)C(=O)c2csc(C3CCN(C(=O)Cc4cc(C)ccc4C)CC3)n2)cc1 [compound 62]	29%	92%	43%	24%	92%
Cc1ccc(C)c(CC(=O)N2CCC(c3nc(C(=O)N(C)[C@H](C)c4ccc(Br)cc4)cs3)CC2)c1 [compound 63]	0%	100%	99%	93%	100%
Cc1ccc(C)c(CC(=O)N2CCC(c3nc(C(=O)N(C)[C@H](C)c4ccc(F)cc4)cs3)CC2)c1 [compound 64]	92%	100%	93%	95%	100%
Cc1cc(C)n(CC(=O)N2CCC(c3nc(C(=O)N(C)[C@H](C)c4ccccc4)cs3)CC2)n1 [compound 65]	0%	100%	100%	100%	92%
Cc1ccc(C)c(CC(=O)N2CCC(c3nc(C(=O)N(C)[C@H](C)c4cccc(C(F)(F)F)c4)cs3)CC2)c1 [compound 67]	0%	68%	99%	0%	10%
Cc1ccc(C)c(CC(=O)N2CCC(c3nc(C(=O)N(C)[C@@H](C)c4ccccc4)cs3)CC2)c1 [compound 68]	0%	100%	95%	16%	47%
COc1cccc([C@@H](C)N(C)C(=O)c2csc(C3CCN(C(=O)Cc4cc(C)ccc4C)CC3)n2)c1 [compound 69]	29%	100%	100%	0%	88%
CC(c1ccccn1)N(C)C(=O)c1csc(C2CCN(C(=O)Cc3cccc(C(F)(F)F)c3)CC2)n1 (centres unmarked) [compound 75]	0%	100%	0%	72%	16%
C[C@H](c1ccccc1)N(C)C(=O)c1csc(C2CCN(C(=O)Cc3cc(Cl)ccc3Cl)CC2)n1 [compound 77]	88%	100%	50%	100%	100%
Cc1ccc(F)cc1CC(=O)N1CCC(c2nc(C(=O)N(C)[C@H](C)c3ccccc3)cs2)CC1 [compound 80]	29%	100%	49%	70%	99%
COc1ccc(Br)cc1CC(=O)N1CCC(c2nc(C(=O)N(C)[C@H](C)c3ccccc3)cs2)CC1 [compound 81]	0%	100%	50%	100%	100%
CCCC(c1ccccc1)N(C)C(=O)c1csc(C2CCN(C(=O)Cc3cc(C)ccc3C)CC2)n1 (centres unmarked) [compound 82]	55%	97%	93%	53%	100%
C[C@H](c1ccccc1)N(C)C(=O)c1csc(C2CCN(C(=O)Cc3cc(Cl)ccc3Br)CC2)n1 [compound 86]	0%	99%	86%	100%	99%
C[C@H](c1ccccc1)N(C)C(=O)c1csc(C2CCN(C(=O)Cc3cc(C(F)(F)F)ccc3C(F)(F)F)CC2)n1 [compound 87]	0%	88%	100%	8%	79%
Cc1ccc(C)c(CC(=O)N2CCC(c3nc(C(=O)N(C)C(C)c4cccs4)cs3)CC2)c1 (centres unmarked) [compound 89]	43%	99%	93%	99%	100%
Cc1nc(CC(=O)N2CCC(c3nc(C(=O)N(C)[C@H](C)c4ccccc4)cs3)CC2)c(C)s1 [compound 92]	0%	100%	100%	100%	83%
Cc1ccc(C)c(CC(=O)N2CCC(c3nc(C(=O)N(C)C(C)c4ccccn4)cs3)CC2)c1 (centres unmarked) [compound 94]	0%	100%	93%	100%	0%
Cc1ccc(C)c(CC(=O)N2CCC(c3nc(C(=O)N(C)C(C)c4cccnc4)cs3)CC2)c1 (centres unmarked) [compound 95]	0%	100%	97%	83%	0%
CCc1cccc(CC(=O)N2CCC(c3nc(C(=O)N(C)[C@H](C)c4ccccc4)cs3)CC2)c1 [compound 119]	89%	99%	100%	33%	95%
Cc1ccc(C(F)(F)F)cc1CC(=O)N1CCC(c2nc(C(=O)N(C)[C@H](C)c3ccccc3)cs2)CC1 [compound 124]	71%	100%	90%	0%	100%
